Data on 5 compounds can be found in patent publication US12240816B2, “Deuterated compounds and uses thereof” (Aldeyra Therapeutics, Inc., priority 2015, dated 2025).

Data set [1] relates to rat hippocampal cultures. The data set can be described thus: cells. It counts as cell-based. Particulars: for Neuronal viability (CFDA), % of Control / Neuronal viability (CFDA), Mean / Neuronal viability (CFDA), individual values: 5 hours; for EC50 ± SE / Full Efficacy Concentration / No effect Concentration: Example 13, CFDA, 10 μM hydrogen peroxide, 0.1 to 300 μM tested; for EC50 ± SE / Full Efficacy Concentration / No effect Concentration / % of Control (CFDA) / CFDA signal, Mean: 5 h; for % of Control (CFDA) / CFDA signal, Mean: CBD 10 μM + 10 μM hydrogen peroxide.

The test system of data set [2] is rat hippocampal cultures. The data set can be described thus: Propidium iodide cell death assay, protection from hydrogen peroxide toxicity. It counts as cell-based. The conditions noted are these: for Cell death (Propidium Iodide), % of Control / Cell death (Propidium Iodide), Mean / Cell death (Propidium Iodide), individual values: 5 hours; for EC50 ± SE / Full Efficacy Concentration / No effect Concentration: Example 13, 0.1 to 300 μM tested; for EC50 ± SE / Full Efficacy Concentration / No effect Concentration / protection from cell death: PI, 10 μM hydrogen peroxide; for EC50 ± SE / Full Efficacy Concentration / No effect Concentration / protection from cell death / % of Control (PI) / PI signal, replicate wells: 5 h; for protection from cell death: 0.1 to 300 μM; for % of Control (PI) / PI signal, replicate wells: CBD 10 μM + 10 μM hydrogen peroxide.

[3] abbreviates: 0.1 μM + 10 μM hydrogen peroxide, DMSO.
Where [4] appears, read: 1 μM + 10 μM hydrogen peroxide, DMSO.
The mark [5] stands for this setting: 10 μM + 10 μM hydrogen peroxide, DMSO.
[6] abbreviates: 100 μM + 10 μM hydrogen peroxide, DMSO.
The mark [7] stands for this setting: 300 μM + 10 μM hydrogen peroxide, DMSO.
Where [8] appears, read: Experiment 9 (vehicle plates, Tables 17 and 18).
The mark [9] stands for this setting: positive control CBD + HP 10 μM.
[10] abbreviates: Experiment 10 (vehicle plates, Tables 19 and 20).

Several values for one entry are separate records, joined by “and”; a condition that tells them apart may be missing. Identical values can stand only once. Entries after “also recorded” stand apart in the source; their conditions may differ. Marks after values point to notes of the source that are not given here.

For `CC(C)(O)c1nc2ccccc2nc1N` [ALD2], the “Neuronal viability (CFDA), % of Control” value is reported as 67 ± 3% in data set [1] (setting [3]); 67 ± 4% in data set [1] (setting [4]); 71 ± 5% in data set [1] (setting [5]); 68 ± 4% in data set [1] (setting [6]); 72 ± 4% in data set [1] (setting [7]). Moreover, the “Neuronal viability (CFDA), Mean” value in data set [1] (setting [3]) is listed as 38243; in data set [1] (setting [4]), 38073; in data set [1] (setting [5]) it was 40512; in data set [1] (setting [6]) it was 38674; in data set [1] (setting [7]), 41274. Besides, in data set [1] (setting [3]), the “Neuronal viability (CFDA), individual values” was 40839 (3×) and 34813 and 33885. Also, the “Cell death (Propidium Iodide), % of Control” value (“Cell death … % of Control” below) amounted to 172 ± 5% in data set [2] (setting [3]); 166 ± 9% in data set [2] (setting [4]); 167 ± 13% in data set [2] (setting [5]); 157 ± 8% in data set [2] (setting [6]); 182 ± 8% in data set [2] (setting [7]). The “Cell death (Propidium Iodide), Mean” value in data set [2] (setting [3]) worked out at 274; in data set [2] (setting [4]), 264; in data set [2] (setting [5]), 266; in data set [2] (setting [6]), 249; in data set [2] (setting [7]) it was 290. Also, the “Cell death (Propidium Iodide), individual values” (“Cell death … individual values” for short) in data set [2] (setting [3]) was 258 and 294 (2×) and 259 and 266; in data set [2] (setting [4]), 229 and 294 and 258 and 242 and 298; in data set [2] (setting [5]), 293 and 329 and 258 and 225 (2×); in data set [2] (setting [6]), 225 (2×) and 258 and 242 and 294; in data set [2] (setting [7]) it was 302 and 294 (2×) and 320 and 242.
For `[2H]C([2H])([2H])C(O)(c1nc2ccc(Cl)cc2cc1N)C([2H])([2H])[2H]` [ALD6], the “Neuronal viability (CFDA), % of Control” value in data set [1] (setting [3]) was 59 ± 3%; in data set [1] (setting [4]) it was 65 ± 5%; in data set [1] (setting [5]), 83 ± 4%; in data set [1] (setting [6]), 98 ± 4%; in data set [1] (setting [7]) it was 98 ± 4%. Further, the “Neuronal viability (CFDA), Mean” value in data set [1] (setting [3]) is 34394; in data set [1] (setting [4]), 38055; in data set [1] (setting [5]), 48055*; in data set [1] (setting [6]), 57123*; in data set [1] (setting [7]), 56976*. In addition, the “Neuronal viability (CFDA), individual values” in data set [1] (setting [7]) was 53184 (3×) and 59551 and 65778. Besides, the “Cell death … % of Control” value in data set [2] (setting [3]) is on record as 165 ± 15%; in data set [2] (setting [4]), 120 ± 5%; in data set [2] (setting [5]) it was 107 ± 5%; in data set [2] (setting [6]) it was 108 ± 7%; in data set [2] (setting [7]), 107 ± 6%. In addition, the “Cell death (Propidium Iodide), Mean” value in data set [2] (setting [3]) is on record as 273; in data set [2] (setting [4]), 198*; in data set [2] (setting [5]) it was 176*; in data set [2] (setting [6]), 178*; in data set [2] (setting [7]), 176*. Also, the “Cell death … individual values” in data set [2] (setting [3]) was 294 and 242 and 356 and 225 and 250; in data set [2] (setting [4]), 223 and 183 (2×) and 189 and 214; in data set [2] (setting [5]) it was 189 (2×) and 139 and 179 and 183; in data set [2] (setting [6]), 206 and 189 and 135 and 167 and 193; in data set [2] (setting [7]), 189 (2×) and 147 and 197 and 159.
For the compound `CC(C)(O)c1nc2ncccc2cc1N` [ALD-5], in data set [1] (DMSO), the “EC50 ± SE” value is “Inactive”, the “Full Efficacy Concentration” value is listed as “Inactive” and the “No effect Concentration” value is recorded as “Inactive”. In addition, in data set [2] (DMSO), the “EC50 ± SE” value was “Inactive”, the “Full Efficacy Concentration” value is listed as “Inactive”, the “No effect Concentration” value is “Inactive” and the “protection from cell death” value is given as “no statistically significant protection from cell death; also recorded: did not produce statistically significant protection from cell death”.
In the case of `CC(C)(O)c1nc2ccccc2nc1N` [ALD-2], in data set [1] (DMSO), the “EC50 ± SE” value is recorded as “Inactive”, the “Full Efficacy Concentration” value was “Inactive” and the “No effect Concentration” value is “Inactive”. In data set [2] (DMSO), the “EC50 ± SE” value is recorded as “Inactive”, the “Full Efficacy Concentration” value is “Inactive”, the “No effect Concentration” value was “Inactive” and the “protection from cell death” value was “no statistically significant protection from cell death; also recorded: did not produce statistically significant protection from cell death”.
As for `C=C(C)[C@@H]1CCC(C)=C[C@H]1c1c(O)cc(CCCCC)cc1O` [CBD, cannabidiol, reference compound], the “% of Control (CFDA)” value was determined as 99 ± 7% in data set [1] (setting [8]); 105 ± 4% in data set [1] (Table 9 plate); 103 ± 5% in data set [1] (Table 11 plate); 102 ± 12% in data set [1] (Table 13 plate); 100 ± 7% in data set [1] (Table 15 plate). The “CFDA signal, Mean” value in data set [1] (setting [8]) is 43543*; in data set [1] (Table 9 plate), 48894*; in data set [1] (Table 11 plate) it was 44366*; in data set [1] (Table 13 plate) it was 40858*; in data set [1] (Table 15 plate) it was 41741*. Moreover, the “Neuronal viability (CFDA), % of Control” value in data set [1] (setting [9]) is 101 ± 3% and 97 ± 4%. Besides, the “Neuronal viability (CFDA), Mean” value in data set [1] (setting [9]) is 57221* and 57590* and 55059*. Besides, the “% of Control (PI)” value in data set [2] (setting [10]) was 112 ± 7%; in data set [2] (Table 10 plate), 97 ± 9%; in data set [2] (Table 12 plate) it was 102 ± 11%; in data set [2] (Table 14 plate), 108 ± 11%; in data set [2] (Table 16 plate), 103 ± 8%. Also, the “PI signal, replicate wells” value in data set [2] (setting [10]) is 184 and 156 and 180; in data set [2] (Table 10 plate) it was 117 and 180 and 121 and 192; in data set [2] (Table 12 plate), 125 and 117 (2×) and 180 (2×); in data set [2] (Table 14 plate), 121 and 200 and 180 and 117; in data set [2] (Table 16 plate), 129 and 184 and 180 and 117. Further, in data set [2] (setting [9]), the “Cell death … % of Control” value is 93 ± 9% and 91 ± 10% and 91 ± 8%. In addition, the “Cell death (Propidium Iodide), Mean” value in data set [2] (setting [9]) was 154* and 136* and 145*. Further, the “Cell death … individual values” in data set [2] (setting [9]) is 171 and 123 and 197 and 119 and 83 and 147 and 164 and 139 and 104 and 175.
